In one data set the test system is MCF-7 cancer cells. Kind of data set: Sulforhodamine B (SRB) growth inhibition assay. The class given is cell-based. The following applies: Homo sapiens, MCF7, 24 h treatment, mean of triplicate, SD <10%. The procedure:
(§1) Various compounds were tested to evaluate the dose response curve for effect on MCF-7 cancer cells and MDA-MB-231 cancer cells. MCF-7 and MDA-MB-231 cells were cultured in 10% Minimum Essential Medium Eagle (MEME) supplemented with Earle's Balanced Salt Solution (EBSS), Non-essential Amino acids (NEAA), Sodium pyruvate, Pen/Strep, L-glutamine and Fetal Bovine Serum (FBS) at 37° C. in 5% CO2.
(§2) Sulforhodamine B (SRB) Assay: A stock solution of compounds was prepared at 50 mM in 100% DMSO. For cells preparation, a flask of 75 cm^2 or 25 cm^2 were used for 2.6×10^5 cells or 1.44×10^5 cells respectively with an 80-90% of confluence. Cells were washed with PBS and trypsinized. The concentration of cells was determined using a 1:2 dilutions with Trypan Blue and a hemocytometer. After cell count, the concentration was adjusted to have a 1.9×10^4 cells/well. Approximately […] of cells suspension, compounds, control positive and control negative were added in triplicates to a 96 well plate. Positive controls used were ellipticine, doxorubicin, and/or vincristine, and the negative control was DMSO 0.1%. All compounds at 50, 25, 12.5, 6.3, and 1.6 μM were incubated with cells at 37° C. for 24 hrs. For fixation, cold TCA 50% was used and incubated at 4° C. for 1 hr. Wells were washed and dried prior to tincture with 100 μL of SRB 0.4%. To remove excess of SRB, acetic acid was used. For analysis, TRIS-BASE Solution (pH=10.5) was used and shacked prior to reading using an ELISA reader at 510 nm and the software SoftMax Pro 4.8.
(§3) For each compound, 50% growth inhibition (GI50) was calculated from Sigmoidal dose-response curves (variable-slope) that were generated with data obtained from experiments carried out in triplicates (GI50 values were generated with GraphPad Prism V. 6.02, GraphPad Software, Inc.). The results are presented in FIGS. 4A-4B (MCF-7 cancer cells) and FIGS. 5A-5B (MDA-MB-231 cancer cells).

The next data set has as its system MDA-MB-231 cancer cells. The data set is described as follows: Sulforhodamine B (SRB) growth inhibition assay. The following applies: Homo sapiens, MDA-MB-231; SRB assay, 24 h treatment, mean of triplicate, SD <10%. It counts as cell-based, human. The method, then: as §1, §2, §3
For orientation: In SRB staining, fixed cells bind dye roughly in proportion to their protein.

Data set [1] concerns MDA-MB-231 breast cancer cells. Kind of data set: Wound healing assay (scratch method), cell migration. It counts as cell-based, human. The following applies: for inhibition at 10 µM: read-out: anti-migratory activity (inhibition of migration). The procedure:
The experimental data of anti-migratory activities for compounds 3a-d and 4a-f were obtained using MDA-MB-231 breast cancer cells. For the migration assay, a wound-healing assay (scratch-wound assay) was utilized in the presence of vehicle (0.02% DMSO) or compounds at […].
Prior to assays, cells were grown until 80-90% confluence was observed. A 75 cm2 flask was used for 2.6×10^5 cells/mL in 10 mL and for a 25 cm2 flask 1.44×10^5 cells/mL in 5 mL. The cells were washed with PBS to remove all traces of FBS. 2 mL was added for a 25 cm2 flasks or 4 mL for a 75 cm2 flasks trypsin, and incubated 5-10 min at 37° C. At the end of the incubation time, cells were re-suspended and counted with hemocytometer using 1:2 dilutions with Trypan blue. Subsequently, cell viability was calculated. In a 12 multiwell plate, the plastic pattern was used to draw a fine space with a fine marker on the bottom of the plate. Cells were seeded at 1.5-2.2×10^5 cells/mL in 1 mL and incubated for 24 h. Cells were then rinsed with PBS and incubated in starving media (0.5% FBS) overnight. All controls and drugs were tested in triplicate. The negative control for each drug was prepared according to the drug's DMSO concentration.
Drugs were diluted and the final concentration at each well […]. The wound was made using a sterile pipette tip of […]. Cells were then rinsed very gently with media without FBS and media with negative controls was added. After a 24 h incubation, the gap distance was evaluated using the software Lumera Infinity Analyze 6.4.0. Pictures were taken at 0, 8, 12 and 24 h using a 10× objective. The percentage of migration was calculated using the following formula: 100−[(X0/X0)]*100 for time 0 h measurements 100−[(X24/X0)]*100 for time 24 h measurements
The experimental data of anti-migratory activities for compounds 3a-d and 4a-f were obtained using MDA-MB-231 breast cancer cells, and results are summarized in Table 1. For the migration assay, we used a wound-healing assay (scratch-wound assay)^22 in the presence of vehicle (0.02% DMSO) or compounds at 10 μM (FIG. 6). […] However, compounds 3a, 3c, and 4a-f inhibited migration in the range of 1-9%.
(§4) An additional example of a compounds with modification in building block C was synthesized via a different procedure as represented in Scheme 2B (see FIG. 11B). The compounds that were synthesized were tested for their biological activity by determination of their cytotoxicity in MDA-MB-231 breast cancer cell lines as shown in Table 5. The cytotoxicity's are expressed as IC50, which indicates the concentration at which 50% of the cell growth is inhibited. Furthermore, the inhibition of cell migration was tested at a concentration of 0.2×IC50, or, when the IC50 was >50 μM at a concentration of 10 μM. For comparison, Table 5 also includes the Lipinski and drug-likeness parameters as calculated via the MolSoft platform.
Migration assays were performed via the Scratch Method as described previously.

In data set [2] the test system is MDA-MB-231 breast cancer cell lines. The data set is described as follows: Cytotoxicity (IC50) of EHop-016 derivatives modified in building block C. It counts as cell-based. The conditions noted are these: Homo sapiens, concentration at which 50% of the cell growth is inhibited. The procedure:
as §4

The next data set concerns the target Rac1-Vav2 interaction (Homo sapiens, UniProt P63000). The following applies: cited from earlier work.
Another data set concerns PAK1. The following applies: at 2 μM; cited from earlier work.
Another data set addresses Rac (Homo sapiens, UniProt P63000). The conditions noted are these: cited from earlier work.
In another data set the target is Cdc42 (Homo sapiens, UniProt P60953). The following applies: cited from earlier work.
The subject of the next data set is tumor. The following applies: at ≥25 mg/kg Body Weight, mouse model; cited from earlier work.
For data set [3] the following is noted: mouse model; cited from earlier work.

Like-named read-outs stand apart in the source and are kept apart here. A value given as a limit tells only on which side of the number the result lay.

Chain of Cdc42 (P60953 whole entry, species assumed): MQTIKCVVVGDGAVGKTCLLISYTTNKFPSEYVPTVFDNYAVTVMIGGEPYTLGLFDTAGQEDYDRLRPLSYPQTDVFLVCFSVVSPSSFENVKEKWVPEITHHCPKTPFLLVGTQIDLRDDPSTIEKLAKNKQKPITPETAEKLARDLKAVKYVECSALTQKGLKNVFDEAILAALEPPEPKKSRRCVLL

`CCn1c2ccccc2c2cc(Nc3ccnc(NCCCN4CCOCC4)n3)ccc21` (racemic) [EHop-016]: the figures for the GI50 with MCF-7 cancer cells and with MDA-MB-231 cancer cells were 14 µM and 15 µM, respectively. Moreover, the activity at 1 µM in data set [1] (Homo sapiens, MDA-MB-231, 24 h, at 1 μM) was 95.4%. Moreover, the activity at 5 µM in data set [1] (Homo sapiens, MDA-MB-231, 24 h, at 5 μM) stood at 63.4%. In addition, the inhibition at 1 µM in data set [1] (Homo sapiens, MDA-MB-231, read-out: inhibition of migration, at 1.0 μM, scratch method) was 5%. The inhibition at 5 µM in [1] (Homo sapiens, MDA-MB-231, read-out: inhibition of migration, at 5.0 μM, scratch method) is 37%. Further, the inhibition at 10 µM in data set [1] (Homo sapiens, MDA-MB-231) amounted to 33%; in data set [1] (Homo sapiens, at 10 μM, 24 h, MDA-MB-231), 33%. In [1] (Homo sapiens, percent relative migration at 10 μM after 24 h, relative to control, MDA-MB-231), this molecule returned an activity at 10 µM of 67 ± 7.55%. Besides, the anti-migratory activity was found to be 17% in [1] (at 5 pM as printed, MDA-MB-231) and 17% in data set [1] (at 5 μM, MDA-MB-231). Besides, the IC50 in data set [2] is 15.7 µM; at Rac1-Vav2 interaction, 1 µM; at Rac (metastatic breast cancer cells), 1 µM. In addition, the inhibition of PAK1 in the data set with PAK1 was 60%. The “activity relative to previously available Rac inhibitors” value at Rac was 10-100 times. Moreover, at Cdc42, the “concentrations that inhibit Cdc42 activity” value was no less than 10 µM. Also, the “tumor growth, metastasis and angiogenesis in words” value with tumor is “significantly reduced tumor growth, metastasis, and angiogenesis”. The clearance in words result in data set [3] is “cleared rapidly from the circulation”.

What is called GI50 is the concentration that inhibits growth by half. The IC50 is the midpoint of a concentration-inhibition curve.

(Values after patent US11446299B2, “Carbazole EHop-016 derivatives as anticancer and anti-migratory agents” (UNIVERSITY OF PUERTO RICO, priority 2017, dated 2022).)
